Series [1] relates to 3T3-L1. Briefly: Effect on adipogenesis in mouse 3T3L1 cells assessed as reduction in Fabp4 gene expression at 5 to 50 uM after 4 days by real time quantitative PCR analysis relative to vehicle-treated control. Format: functional, cell-based.
Series [2] deals with 3T3-L1. Briefly: Effect on adipogenesis in mouse 3T3L1 cells assessed as reduction in Cebpa gene expression at 5 to 50 uM after 4 days by real time quantitative PCR analysis relative to vehicle-treated control. Format: functional, cell-based.
Series [3] in a line: Cytotoxicity against mouse 3T3L1 cells assessed as LDH release at 50 uM after 48 hrs. The settings on record: 3t3-l1, 48 h. The class given is cell-based. A general note: Release of lactate dehydrogenase indicates damage to the cell membrane.
Series [4] deals with 3T3-L1. In words: Reduction in triglyceride release in mouse 3T3L1 cells at 50 uM after 48 hrs by oil red o assay. The class given is functional, cell-based.
Series [5] has as its system 3T3-L1. In words: Effect on adipogenesis in mouse 3T3L1 cells assessed as reduction in Cebpa gene expression at 5 to 50 uM after 8 days by real time quantitative PCR analysis relative to vehicle-treated control. Format: functional, cell-based.
In series [6] the test system is 3T3-L1. In words: Induction of lipolysis in mouse 3T3L1 cells assessed as up-regulation of Acox1 gene exression by real time-qPCR analysis. Format: functional, cell-based. Background: Quantitative PCR measures a nucleic acid by following its amplification.
The test system of series [7] is 3T3-L1. In words: Induction of lipolysis in mouse 3T3L1 cells assessed as increase in glycerol level at 50 uM after 48 hrs by UV-Vis spectrophotometry. Format: functional.
A short description of series [8]: Cytotoxicity against mouse 3T3L1 cells assessed as effect on lactate dehydrogenase release at 5 to 50 uM measured on day 8. The settings on record: 3t3-l1, 50 µM. Format: cell-based.
In series [9] the test system is 3T3-L1. In words: Effect on adipogenesis in mouse 3T3L1 cells in DI media assessed as reduction in fat-laden mature adipocytes at 50 uM after 8 days by oil red o assay. Format: functional, cell-based.
For series [10], the system named is 3T3-L1. Briefly: Effect on adipogenesis in mouse 3T3L1 cells in DI media assessed as reduction in lipid accumulation at 50 uM measured on day 8 by fluorescence-based AdipoRed assay. Format: functional, cell-based.
Series [11] concerns the target T1, Peroxisome proliferator-activated receptor gamma (Homo sapiens, UniProt P37231).
T1 sequence (P37231 whole entry): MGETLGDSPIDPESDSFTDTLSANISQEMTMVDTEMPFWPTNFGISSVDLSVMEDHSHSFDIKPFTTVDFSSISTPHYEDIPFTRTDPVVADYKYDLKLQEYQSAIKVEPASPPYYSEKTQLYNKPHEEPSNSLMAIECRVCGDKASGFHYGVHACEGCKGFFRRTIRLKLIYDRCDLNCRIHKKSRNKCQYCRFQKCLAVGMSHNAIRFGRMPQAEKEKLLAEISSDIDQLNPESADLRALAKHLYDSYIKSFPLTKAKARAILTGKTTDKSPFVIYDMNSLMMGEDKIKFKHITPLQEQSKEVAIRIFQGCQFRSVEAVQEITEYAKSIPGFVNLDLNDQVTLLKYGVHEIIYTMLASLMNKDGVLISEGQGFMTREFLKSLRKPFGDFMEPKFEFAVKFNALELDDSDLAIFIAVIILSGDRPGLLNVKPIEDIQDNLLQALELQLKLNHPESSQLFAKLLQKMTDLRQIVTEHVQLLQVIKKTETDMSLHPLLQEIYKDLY
Briefly: Competitive binding to human GST-tagged PPAR-gamma by TR-FRET assay. (In general: Time-resolved FRET reads energy transfer from a long-lived donor to a nearby acceptor.)

Series [12] concerns 3T3-L1. Briefly: Effect on adipogenesis in mouse 3T3L1 cells in DI media assessed as increase in lipid accumulation at <25 uM after 8 days by fluorescence-based AdipoRed assay. Format: functional, cell-based.
In series [13] the target is T2, Peroxisome proliferator-activated receptor alpha (Homo sapiens) (UniProt Q07869).
T2 sequence (whole entry): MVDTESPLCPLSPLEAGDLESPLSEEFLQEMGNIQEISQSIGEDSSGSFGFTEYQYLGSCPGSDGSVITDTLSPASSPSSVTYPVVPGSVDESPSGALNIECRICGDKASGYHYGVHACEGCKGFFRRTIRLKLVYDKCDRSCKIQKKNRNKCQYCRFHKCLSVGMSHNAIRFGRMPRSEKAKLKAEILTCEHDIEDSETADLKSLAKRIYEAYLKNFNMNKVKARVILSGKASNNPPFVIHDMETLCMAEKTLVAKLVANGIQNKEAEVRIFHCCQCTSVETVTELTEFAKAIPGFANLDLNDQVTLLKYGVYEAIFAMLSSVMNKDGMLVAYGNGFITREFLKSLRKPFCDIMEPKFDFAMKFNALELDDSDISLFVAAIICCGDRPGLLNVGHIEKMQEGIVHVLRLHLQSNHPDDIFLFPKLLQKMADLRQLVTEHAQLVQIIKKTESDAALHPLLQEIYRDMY
In words: Agonist activity at PPAR-alpha (unknown origin) by transactivation assay.

Series [14] relates to 3T3-L1. In words: Activation of AMPK in mouse 3T3L1 cells assessed as AMPK phosphorylation at 50 uM after 5 to 48 hrs by Western blotting analysis. The class given is cell-based.

Structures are written as SMILES. Active and inactive are the calls of the source. The calls are words filed in the database; no cut-off is given here.

Regarding `CCCCCCCc1oc2cc(O)ccc2c(=O)c1-c1ccc(OC)cc1`, the outcome (in the series with 3T3-L1 [1]; in series [13]; in the series with 3T3-L1 [14]) was inactive. Further, the Activity entry with 3T3-L1 [2] is “Dose-dependent effect”; in series [3], “Toxic”; in the series on 3T3-L1 [5], “Dose-dependent effect”; in [8], “Non-toxic”. The result in the series with 3T3-L1 [4], with 3T3-L1 [6], in the series with 3T3-L1 [9], with 3T3-L1 [10] and in the series on 3T3-L1 [12] was Active. Moreover, the “fold change (FC)” value with 3T3-L1 [7] came to 2. Also, the concentration for half-maximal inhibition (IC50) in series [11] was determined as 5 µM.

For orientation: IC50 means the concentration needed to halve the response being measured. The low end stands for higher potency, the high end for lower potency.

These data come from ChEMBL document CHEMBL3352398, “2-(2-Bromophenyl)-formononetin and 2-heptyl-formononetin are PPARγ partial agonists and reduce lipid accumulation in 3T3-L1 adipocytes” (Bioorg Med Chem, 2014).
